Data taken from patent US20060154942A1, “Quinazolinone derivatives useful as anti-hyperalgesic agents” (priority 2002, published 2006).

melting point: 326 to 330 °C
Structure (SMILES): CC(C)c1cc2nc(N)[nH]c(=O)c2cc1-c1ccc(Cl)cc1 [Example 59, 2-Amino-6-(4-chlorophenyl)-7-isopropyl-3H-quinazolin-4-one]
